Assay results as given in patent US9534008B2, “Small molecule compounds that control plant- and insect-pathogenic nematodes” (California Institute of Technology, priority 2011, dated 2017).
“Also recorded” adds a separate entry of the source.

How the values were obtained:
ASK neurons = assay: Calcium imaging (G-CaMP), ASK; assay type: in vivo, C. elegans; settings: 1 pM to 1 μM
Source text: (§1) Transgenic lines that express the genetically encoded Ca^2+ sensor in ASK (kyEx2866) and AIA (kyEx2916) (Macosko et al., Nature 458:1171-75 (2009), which is hereby incorporated by reference in its entirety) were used for calcium imaging. Young adults or adult worms were inserted into an “Olfactory chip” microfluidic device (Chronis et al., Nat. Methods 4:727-31 (2007), which is hereby incorporated by reference in its entirety). Dilutions of icas#3 were done with S-basal buffer (with no cholesterol). As stock solutions of icas#3 contained small amounts of ethanol, equivalent amounts of ethanol were added to the S-basal control flow.
(§2) Imaging was conducted using an inverted Zeiss microscope equipped with an Andor camera. Exposure time for image acquisition was 300 milliseconds. Before imaging the ASK neuron, the worm was exposed to blue light for 3 minutes as ASK responds to the blue light itself. […] Movies were analyzed using custom-made Matlab scripts. The first peak of fluorescence immediately after exposure to buffer or icas#3 was chosen for calculating the average change in fluorescence upon exposure to either buffer or icas#3. The value for this maximum was then subtracted from the mean fluorescence during the 5 seconds before the delivery of icas#3/buffer (corresponding to the region between 5 to 10 seconds in FIG. 2D).

[1] = tested on: C. elegans hermaphrodites; assay: Quadrant chemotaxis assay; assay type: in vivo
Experimental: Chemotaxis to both non-indole and indole ascarosides was assessed on 10 cm four-quadrant petri plates (Wicks et al., Dev. Biol. 221:295-307 (2000), which is hereby incorporated by reference in its entirety). Each quadrant was separated from adjacent ones by plastic spacers (FIG. 1B). Pairs of opposite quadrants were filled with nematode growth medium (NGM) agar containing either indole ascarosides or non-indole ascarosides at different concentrations. Animals were washed gently in a S-basal buffer, placed in the center of a four-quadrant plate with ascarosides in alternating quadrants, and scored after 15 minutes and 30 minutes. A chemotaxis index was calculated as: (the number of animals on ascaroside quadrants minus the number of animals on buffer quadrants)/(total number of animals).
Chemotaxis to hbas#3 was assessed on 10 cm four-quadrant petri plates (Wicks et al., Dev. Biol. 221:295-307 (2000), which is hereby incorporated by reference in its entirety). Each quadrant was separated from adjacent ones by plastic spacers. Pairs of opposite quadrants were filled with nematode growth medium (NGM) agar containing different concentrations of hbas#3. Animals were washed gently in an S-basal buffer and placed in the center of a four-quadrant plate with ascarosides in alternating quadrants, and scored after 15 minutes and 30 minutes. A chemotaxis index was calculated as: (the number of animals on ascaroside quadrants minus the number of animals on buffer quadrants)/(total number of animals).

C. elegans [2] = assay: Aggregation assay; assay type: in vivo
Experimental: Aggregation behavior of worms was measured using assays reported in de Bono & Bargmann, Cell 94:679-89 (1998), which is hereby incorporated by reference in its entirety. Aggregation assays were conducted on standard NGM plates. Plates containing indole ascarosides were made by adding the indole ascaroside stock solution to the NGM media before they were poured onto the plates. These plates were dried at room temperature for 2 to 3 days. Control plates were treated similarly, except that ethanol solutions instead of icas solutions were added to the plates, corresponding to the amount of ethanol introduced via the icas solutions. Final ethanol concentrations of the plates were below 0.1% for all conditions. After drying, both control plates and plates containing indole ascarosides were seeded with 150 μl of an overnight culture of E. coli OP50 using a micropipette, and were allowed to dry for 2 days at room temperature. For “low worm density” experiments, 20 worms were placed onto the lawn and left at 20° C. for 3 hours. For “high worm density” experiments, approximately 120 worms were placed onto the bacterial lawn and left at 20° C. for 3 hours. Aggregation behavior was quantified as the number of animals that were in touch with two or more animals at greater than 50% of their body length.

C. elegans [3] = assay: Ascaroside function (Table 12), C. elegans; assay type: in vivo, Caenorhabditis elegans; design: key to Attract Females/Herm. / Promote Dauer Formation / Attract Males: A very strong result of affecting nematode behavior is designated in the table as “strong.”
Experimental: Various ascarosides and ascaroside blends were administered to various nematodes described below (Table 12). […] A very strong result of affecting nematode behavior is designated in the table as “strong.”

[4] = tested on: C. elegans hermaphrodites and males; assay: Spot attraction assay; assay type: in vivo
Experimental: The spot attraction assays were conducted according to a previously reported method (Pungaliya et al., PNAS 106:7708-13 (2009); Srinivasan et al., Nature 454:1115-18 (2008), which are hereby incorporated by reference in their entirety). For both C. elegans hermaphrodites and males, 50-60 worms were harvested daily at the fourth larval stage (L4) and stored segregatedly by sex at 20° C. overnight, to be used as young adults the following day. For the competition experiments, two conditions were used: 120 nM ascr#3 and 10 nM icas#3 (Condition 1), or 12 μM ascr#3 and 1 μM icas#3 (Condition 2) in water containing 10% ethanol. Aliquots were stored at −20° C. in 20 μL tubes. 10% ethanol in water was used as control.
Attraction assays with hbas#3 were conducted as previously reported (Srinivasan et al., Nature 454:1115-18 (2008); Pungaliya et al., Proc. Natl. Acad. Sci. U.S.A. 106:7708-13 (2009), which are hereby incorporated by reference in their entirety). For the attraction assays, 50-60 hermaphrodite worms were harvested daily at the early fourth larval stage (L4) and stored at 20° C. overnight to be used as young adults the following day. Hbas#3 was dissolved in water containing 10% ethanol. Aliquots were stored at −20° C. in 20 μL tubes. 10% ethanol in water was used as control.

AIA interneurons = assay: Calcium imaging (G-CaMP), AIA; assay type: in vivo, C. elegans; settings: 1 μM icas#3
Source text: as §1, §2

[5] = tested on: C. elegans hermaphrodites; assay: Measurement of locomotory parameters (automated worm-tracking system); assay type: in vivo
Experimental: Reversal frequency and velocity were measured using an automated worm-tracking system (Pungaliya et al., PNAS 106:7708-13 (2009); Srinivasan et al., Nature 454:1115-18 (2008), which are hereby incorporated by reference in their entirety).

## C[C@H](CCCC/C=C/C(=O)O)O[C@@H]1O[C@@H](C)[C@H](OC(=O)c2c[nH]c3ccccc23)C[C@H]1O [icas#3]
ASK neurons
  Ca2+ transients in ASK neurons: no detection
[1]; 1 pM icas#3, after 15 minutes
  chemotaxis of hermaphrodites from all tested strains: attracted
[1]; 1 μM icas#3, after 30 minutes
  chemotaxis of hermaphrodites from all tested strains: attracted
[1]; in vivo
  attraction of social wild-type (RC301, CB4856) and npr-1(ad609) hermaphrodites: strongly attracted
  response of daf-22 hermaphrodites: as strongly as N2 worms
[1]; presence and absence of food
  concentration resulting in strong attraction of hermaphrodites (as low as): ≤ 1 pM
C. elegans [2]; 1 pM icas#3, low worm density
  aggregation of daf-22 hermaphrodites versus N2: less aggregation than N2 worms
C. elegans [2]; 1 nM icas#3, low worm density
  aggregation of CB4856: not significantly different from the control
C. elegans [2]; entire tested concentration range, without drop off, low worm density
  aggregation of npr-1(ad609) hermaphrodites: increased aggregation
C. elegans [2]; in vivo
  active concentration window (hermaphrodite attraction and aggregation): fM-pM; also recorded: femtomolar to low picomolar
C. elegans [2]; low worm density (20 worms per plate), solitary and social hermaphrodites
  concentration giving very strong increase in aggregation (as low as): ≤ 10 fM
C. elegans [2]; low worm density, any of the tested concentrations
  aggregation of ASK-ablated hermaphrodites: do not aggregate; also recorded: did not aggregate
C. elegans [2]; low worm density, bell-shaped response curve
  concentration of maximal aggregation, social strain CB4856: 1 pM
C. elegans [2]; plates containing 100 fM or 100 pM of icas#3
  aggregation of him-5 males: significantly increased
C. elegans [3]
  Attract Females/Herm.: ([strong])
  Attract Males: ([strong])
[4]; N2 (wild-type) and ncs-1::gfp hermaphrodites
  attraction after ablation of the RMG interneuron: does not affect; also recorded: did not affect
[4]; hermaphrodites
  attraction after ablation of ASK sensory neurons: near complete loss of attraction
[4]; high concentrations, 1 μmol, N2 hermaphrodites and him-5 males
  attraction of both C. elegans sexes: attractive; also recorded: attracted
[4]; in vivo
  attraction of AIA-deficient worms: did not show any attraction
  attraction of daf-22 hermaphrodites: attracted; also recorded: as strongly as N2 worms
  attraction of social wild-type (RC301, CB4856) and npr-1(ad609) hermaphrodites: attracted; also recorded: strongly attracted
[4]; low concentrations, N2 hermaphrodites
  attraction of hermaphrodites: strongly attractive
AIA interneurons
  G-CaMP fluorescence in AIA interneurons: induces G-CaMP fluorescence signals; also recorded: significantly increased; also recorded: significant changes
[5]; 1-10 pM icas#3
  worm velocity: not significantly reduced
[5]; aggregation-inducing concentrations, N2 hermaphrodites
  mean stopped duration: strongly increase
[5]; in vivo
  forward velocity of ASK-ablated hermaphrodites: do not display reduced forward velocity
  reversal frequency of ASK-ablated hermaphrodites: does not increase; also recorded: neither increased reversal frequency
